This passage reports EC50, pKD and Intrinsic activity results from ChEMBL document CHEMBL1159136, “Dipeptide mimetics can substitute for the receptor activation domain resulting in highly potent analogues of hPTH(136)” (Bioorg Med Chem Lett, 1996).

In test [1] the test system is UMR106-06. In words: Compound was evaluated for the accumulation of cyclic AMP in UMR10606 (rat osteosarcoma) cells. The following applies: Rattus norvegicus, UMR106-06. The test is classed as functional, cell-based.
The subject of test [2] is OK-1. The test can be described thus: Displacement of [125I]-chick PTHrP-(1-36)-NH2 from opossum (OK-1) kidney cells. The test is classed as functional.
Test [3] concerns UMR106-06. The test can be described thus: Compound was evaluated for the intrinsic activity for accumulation of cyclic AMP in UMR10606 (rat osteosarcoma) cells. The test is classed as functional.
Test [4] has as its system SAOS-2. The test can be described thus: Compound was evaluated for the intrinsic activity for accumulation of cyclic AMP in SaOS-2 (human osteosarcoma) cells. It counts as functional.
Test [5] relates to OK-1. The test can be described thus: Compound was evaluated for the intrinsic activity for accumulation of cyclic AMP in OK-1 cells. It counts as functional, opossum.
The test system of test [6] is OK-1. The test can be described thus: Accumulation of cyclic AMP in OK-1 cells. The test is classed as functional, cell-based, opossum. The note with it: opossum, OK-1.
Test [7] relates to SAOS-2. In words: Compound was evaluated for the accumulation of cyclic AMP in SaOS-2 (human osteosarcoma) cells. It counts as functional, cell-based. The note with it: Homo sapiens, SAOS-2.

Square brackets hold non-standard residues; d marks the D form. Peptide text beside a SMILES is read from it. * marks the point of attachment. X8 = C[C@H](N)/C(F)=C/[C@@H](Cc1ccccc1)C(=O)*; NMeA = CN[C@@H](C)C(=O)O

Turning to `CC[C@H](C)[C@H](NC(=O)[C@H](CCC(=O)O)NC(=O)[C@H](CO)NC(=O)[C@@H](NC(=O)[C@H](C)NC)C(C)C)C(=O)N[C@@H](CCC(N)=O)C(=O)N[C@@H](CC(C)C)C(=O)N[C@@H](CCSC)C(=O)N[C@@H](Cc1c[nH]cn1)C(=O)N[C@@H](CC(N)=O)C(=O)N[C@@H](CC(C)C)C(=O)NCC(=O)N[C@@H](CCCCN)C(=O)N[C@@H](Cc1c[nH]cn1)C(=O)N[C@@H](CC(C)C)C(=O)N[C@@H](CC(N)=O)C(=O)N[C@@H](CO)C(=O)N[C@@H](CCSC)C(=O)N[C@@H](CCC(=O)O)C(=O)N[C@@H](CCCN=C(N)N)C(=O)N[C@H](C(=O)N[C@@H](CCC(=O)O)C(=O)N[C@@H](Cc1c[nH]c2ccccc12)C(=O)N[C@@H](CC(C)C)C(=O)N[C@@H](CCCN=C(N)N)C(=O)N[C@@H](CCCCN)C(=O)N[C@@H](CCCCN)C(=O)N[C@@H](CC(C)C)C(=O)N[C@@H](CCC(N)=O)C(=O)N[C@@H](CC(=O)O)C(=O)N[C@H](C(=O)N[C@@H](Cc1c[nH]cn1)C(=O)N[C@@H](CC(N)=O)C(=O)N[C@@H](Cc1ccccc1)C(=O)N[C@H](C(=O)N[C@@H](C)C(N)=O)C(C)C)C(C)C)C(C)C` (H-[NMeA]VSEIQLMHNLGKHLNSMERVEWLRKKLQDVHNFVA-NH2), the results for the concentration for a half-maximal effect (EC50) with UMR106-06 [1], in the test with OK-1 [6] and in the test with SAOS-2 [7] were 2.6 nM, 7.4 nM and 1.6 nM, respectively. In addition, the pKD in the test with OK-1 [2] turned out to be 8.5. Further, the Intrinsic activity stood at 1 in the test on UMR106-06 [3], 1 in the test on SAOS-2 [4] and 0.9 in the test on OK-1 [5].
For the compound `CC[C@H](C)[C@H](NC(=O)[C@H](CCC(=O)O)NC(=O)[C@H](CO)NC(=O)[C@@H](/C=C(\F)[C@H](C)N)Cc1ccccc1)C(=O)N[C@@H](CCC(N)=O)C(=O)N[C@@H](CC(C)C)C(=O)N[C@@H](CCSC)C(=O)N[C@@H](Cc1c[nH]cn1)C(=O)N[C@@H](CC(N)=O)C(=O)N[C@@H](CC(C)C)C(=O)NCC(=O)N[C@@H](CCCCN)C(=O)N[C@@H](Cc1c[nH]cn1)C(=O)N[C@@H](CC(C)C)C(=O)N[C@@H](CC(N)=O)C(=O)N[C@@H](CO)C(=O)N[C@@H](CCSC)C(=O)N[C@@H](CCC(=O)O)C(=O)N[C@@H](CCCN=C(N)N)C(=O)N[C@H](C(=O)N[C@@H](CCC(=O)O)C(=O)N[C@@H](Cc1c[nH]c2ccccc12)C(=O)N[C@@H](CC(C)C)C(=O)N[C@@H](CCCN=C(N)N)C(=O)N[C@@H](CCCCN)C(=O)N[C@@H](CCCCN)C(=O)N[C@@H](CC(C)C)C(=O)N[C@@H](CCC(N)=O)C(=O)N[C@@H](CC(=O)O)C(=O)N[C@H](C(=O)N[C@@H](Cc1c[nH]cn1)C(=O)N[C@@H](CC(N)=O)C(=O)N[C@@H](Cc1ccccc1)C(=O)N[C@H](C(=O)N[C@@H](C)C(N)=O)C(C)C)C(C)C)C(C)C` (X8-SEIQLMHNLGKHLNSMERVEWLRKKLQDVHNFVA-NH2), the values for the EC50 in the test on UMR106-06 [1] and in the test with OK-1 [6] were 26 nM and over 1000 nM, respectively. For the same compound, the pKD in the test with OK-1 [2] is given as 8.6. For the same compound, the Intrinsic activity in the test with UMR106-06 [3] was 0.08; with OK-1 [5], under 0.1.

In general, EC50 refers to the midpoint of the concentration-response curve. The low end stands for an effect from little substance, the high end for a need for much substance. By pKD is commonly meant the negative decadic logarithm of the KD, by convention in mol/L. A low value points to a high KD.
